We go through 1 molecule from patent US7078057B2, “Process for producing nanometer particles by fluid bed spray-drying” (priority 1999, dated 2006).

A short description of this data set: Particle size by laser diffraction using photo correlation spectroscopy (Nicomp C370). It counts as physicochemical. As to conditions: ganaxolone particles in spray-dried mixture with lactose (Example I). The procedure: For purposes of the present invention, particle size in the mixtures is determined by a laser diffraction technique using photo correlation spectroscopy (Nicomp C370). The results are reported in terms of volume-weighted mean diameter. Volume-weighted mean diameter is defined as follows: (Σnd^4)/(Σnd^3) where n=the number of particles in a size interval characterized by a diameter “d”. Remington's Pharmaceutical Sciences, 18th edition, Mack Publishing Company, Easton, Pa. (1990).
Approximately 100 g of ganaxolone was dissolved in 5 kg of ethanol with slight warming to 30° C. The solution was sprayed into 1 kg of spray-dried lactose NF (Fast Flo #316) in a Vector FL-M-1 fluid bed system equipped with a 6″ Wurster column. The spray rate was 34–41 mL/min using one gun. The static inlet pressure was 2.5–8 bar (250–800 kPa) affording an air flow of 25–45 cfm. The inlet temperature was 85–90° C. and the product temperature was 27–48° C. The resulting ganaxolone powder mixture was free-flowing and contained 63 mg ganaxolone per g of powder. The ganaxolone particle size in the mixture was determined by a laser diffraction technique using photo correlation spectroscopy (Nicomp C370).

Turning to `CC(=O)[C@H]1CC[C@H]2[C@@H]3CC[C@H]4C[C@](C)(O)CC[C@]4(C)[C@H]3CC[C@]12C` [ganaxolone, 3α-hydroxy-3β-methyl-5α-pregnan-20-one], the volume-weighted mean diameter worked out at 660 nm.
